Where “and” joins values, the source holds several entries; their conditions need not be identical. Identical values can stand only once.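 The compound was tested at five concentrations on cells cultured in 96-well plates, with a 48-hour exposure period. GI50 is the concentration that inhibits growth by half. TGI: total growth inhibition.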
What was measured:
Assay in all cases: NCI anticancer screen, dose series, 48 h
[1] = test system: OVCAR-4 ovarian
[2] = test system: SF-295 CNS
[3] = test system: NCI-H522 lung
[4] = test system: SN12C renal
[5] = test system: K-562 leukemia
[6] = test system: MCF7 breast
[7] = test system: MDA-MB-231 breast
[8] = test system: OVCAR-5 ovarian
[9] = test system: A498 renal
[10] = test system: DU-145 prostate
[11] = test system: SK-MEL-2 melanoma
[12] = test system: TK-10 renal
[13] = test system: OVCAR-8 ovarian
[14] = test system: NCI-H226 lung
[15] = test system: SK-MEL-28 melanoma
[16] = test system: HL-60(TB) leukemia
[17] = test system: SW-620 colon
[18] = test system: COLO 205 colon
[19] = test system: BT-549 breast
[20] = test system: HOP-62 NSCLC
[21] = test system: SNB-19 CNS
[22] = test system: LOX IMVI melanoma
[23] = test system: IGROV1 ovarian
[24] = test system: NCI/ADR-RES ovarian
[25] = test system: RPMI-8226 leukemia
[26] = test system: ACHN renal
[27] = test system: CAKI-1 renal
[28] = test system: A549 NSCLC

**Q.** `Nc1nc(N)c2c(ccc3c2ccn3Cc2cccc([N+](=O)[O-])c2)n1` was tested. Which GI50 [1] did it give?
**A.** 1150 nM

**Q.** What about the TGI [1] of the same molecule?
**A.** 2590 nM

**Q.** And the TGI [2]?
**A.** 3490 nM and 4550 nM

**Q.** What about the GI50 [3] of the same molecule?
**A.** 60.7 nM

**Q.** What about the TGI [3] of the same molecule?
**A.** 1820 nM

**Q.** What about the GI50 [4] of the same molecule?
**A.** 61.5 nM

**Q.** What about the TGI [4] of the same molecule?
**A.** 1650 nM

**Q.** What about the TGI [5] of the same molecule?
**A.** 21600 nM

**Q.** And the GI50 [6]?
**A.** 56.5 nM and 29.3 nM

**Q.** And the TGI [6]?
**A.** 2720 nM and 1450 nM

**Q.** What about the GI50 [7] of the same molecule?
**A.** 1270 nM

**Q.** What about the TGI [7] of the same molecule?
**A.** 2640 nM

**Q.** What about the GI50 [8] of the same molecule?
**A.** 50.4 nM

**Q.** What about the TGI [8] of the same molecule?
**A.** 2360 nM

**Q.** And the GI50 [9]?
**A.** 166 nM and 224 nM

**Q.** What about the TGI [9] of the same molecule?
**A.** 1970 nM and 1940 nM

**Q.** And the GI50 [10]?
**A.** 151 nM and 86 nM

**Q.** What about the TGI [10] of the same molecule?
**A.** 2080 nM and 2000 nM

**Q.** And the GI50 [11]?
**A.** 1260 nM

**Q.** And the TGI [11]?
**A.** 2620 nM

**Q.** And the GI50 [12]?
**A.** 1140 nM

**Q.** What about the TGI [12] of the same molecule?
**A.** 2670 nM

**Q.** And the GI50 [13]?
**A.** 9.01 nM

**Q.** What about the TGI [13] of the same molecule?
**A.** 1700 nM

**Q.** And the GI50 [14]?
**A.** 272 nM

**Q.** What about the TGI [14] of the same molecule?
**A.** 2420 nM

**Q.** And the GI50 [15]?
**A.** 1040 nM and 1020 nM

**Q.** What about the TGI [15] of the same molecule?
**A.** 2360 nM and 2200 nM

**Q.** And the GI50 [16]?
**A.** 9.18 nM and 47.6 nM

**Q.** And the TGI [16]?
**A.** 2500 nM

**Q.** What about the GI50 [17] of the same molecule?
**A.** 5.56 nM

**Q.** And the TGI [17]?
**A.** 1730 nM and 1640 nM

**Q.** What about the GI50 [18] of the same molecule?
**A.** 1100 nM and 150 nM

**Q.** And the TGI [18]?
**A.** 4080 nM and 1790 nM

**Q.** What about the GI50 [19] of the same molecule?
**A.** 1250 nM

**Q.** What about the TGI [19] of the same molecule?
**A.** 3050 nM

**Q.** And the GI50 [20]?
**A.** 65.4 nM

**Q.** What about the TGI [20] of the same molecule?
**A.** 1870 nM

**Q.** What about the GI50 [21] of the same molecule?
**A.** 89.8 nM

**Q.** And the TGI [21]?
**A.** 2420 nM

**Q.** And the GI50 [22]?
**A.** 8.31 nM

**Q.** And the TGI [22]?
**A.** 1470 nM

**Q.** What about the GI50 [23] of the same molecule?
**A.** 2.95 nM

**Q.** What about the TGI [23] of the same molecule?
**A.** 25.5 nM

**Q.** What about the GI50 [24] of the same molecule?
**A.** 77.5 nM and 83.5 nM

**Q.** And the TGI [24]?
**A.** 18600 nM

**Q.** And the GI50 [25]?
**A.** 58.5 nM and 18.5 nM

**Q.** And the GI50 [26]?
**A.** 37.2 nM

**Q.** What about the TGI [26] of the same molecule?
**A.** 1740 nM

**Q.** What about the GI50 [27] of the same molecule?
**A.** 56.2 nM

**Q.** And the TGI [27]?
**A.** 1900 nM

**Q.** And the GI50 [28]?
**A.** 4.96 nM

**Q.** And the TGI [28]?
**A.** 1570 nM

— PubChem BioAssay (NCI)
